Experimental data published in US6849442B1, “Biosensor materials and methods” (Cambridge University Technical Services Limited, priority 1997, dated 2005).

How the values were obtained:
R. corallina [1] = assay: Growth-inducing substrate test on MMRN; type: cell-based, Rhodococcus corallina
Excerpt: Mycolic acid-containing bacteria may then be screened for specific hydrocarbon-inducible catabolic pathways using MMRN supplemented with the target xenobiotic pollutant. Strains for which the target molecule is growth inducing may then be isolated and used to as a source of genetic regulatory elements for biosensors or as specific biocatalytic functions. Using this protocol mycolic acid containing bacteria have been and may be rapidly identified with novel and useful catabolic properties. This approach is also useful for identification and isolation of mycolic acid containing bacteria with biocatalytic properties.

R. corallina [2] = assay: Genetic induction of the toluene degradative pathway, substrate supplied as vapour; type: cell-based, Rhodococcus corallina; details: level in water
Description: (§1) “MMRN” is prepared as a multicomponent stock to avoid the production of uncharacterised compounds during autoclaving. A “basic salts” stock is prepared containing 6 g/L Na2HPO4; 3 g/L KH2PO4; 1 g/L NaCl; 4 g/L (NH4)2SO4; adjusted to pH 7.4 and made up to 989 mls with distilled water and autoclaved. A “100×A salts” solution is prepared consisting of 20 g/L MgSO4; 2000 mg/L FeSO4.7H2O; 200 mg/L FeCl3; 200 mg/L MnSO4.H2O is prepared in distilled water and autoclaved. A “1000×B salts” solution consisting of 500 mg/L ZnSO4.7H2O; 200 mg/L CuCl2·2H2O; 200 mg/L Na2B4O7.10H2O; 100 mg/L (NH4)7Mo6O24.4H2O is prepared in distilled water and autoclaved. To prepare 1 litre of MMRN, sterile solutions of 989 mls basic salts, 10 mls 100×A salts, 1 ml 1000×B salts are combined. For solid media, agar is added to 1.4% w/v. Carbon-energy sources are supplemented to 80 μM final concentrations for soluble molecules, or as vapour for insoluble molecules (where their concentration is decided by their individual partition coefficients generally ranging from 3 to 40 μM). Petri plates or liquid cultures are incubated at 28° C. to 30° C. for up to 72 hours to accumulate sufficient biomass for genetic and biochemical testing.

R. corallina cells = details: for induction of catechol 2,3-dioxygenase activity: R. corallina, meta pathway marker; for ring cleavage dioxygenase pathway induced (meta / ortho): crude enzyme extracts of cells grown on MMRN supplemented with the xenobiotic
Description: as §1

| Compound | acts as growth inducing substrate (R. corallina [1]) | level at which genetic induction of the toluene degradative pathway occurs (R. corallina [2]) | induction of catechol 2,3-dioxygenase activity (R. corallina cells) | ring cleavage dioxygenase pathway induced (meta / ortho) (R. corallina cells) |
| --- | --- | --- | --- | --- |
| xylene | does not act as a growth inducing substrate | – | – | – |
| Cc1ccccc1 [toluene] | – | less than 200 ppm | induced | induced the meta pathway |
| O=C(O)c1ccccc1 [benzoate] | – | – | not | exclusively induces the ortho pathway |
| Oc1ccccc1 [phenol] | – | – | – | exclusively induces the ortho pathway |
